# Source: ChEMBL document CHEMBL1122438, “2-Phenylpyrazolo[1,5-a]pyrimidin-7-ones. A new class of nonsteroidal antiinflammatory drugs devoid of ulcerogenic activity” (J Med Chem, 1983)
# Active and inactive are the calls of the source. No cut-off for these calls is given here.
# Columns and labels:
# Rattus norvegicus [1] = experiment: Percent reduction of edema in rat on 23rd day after oral administration of 30 mg/kg in antiarthritis assay; i = Inactive; assay type: functional, organism-based; design: dose 30 mg/kg; conditions: at 30 mg/kg
# Mus musculus [2] = experiment: Percent reduction of edema in mice 3h after oral administration of 30 mg/kg in carrageenan model; assay type: functional
# Mus musculus [3] = experiment: Percent reduction of edema in mice 3h after oral administration of 20 mg/kg in carrageenan model; assay type: functional
# Rattus norvegicus [4] = experiment: Percent reduction of edema in rat on 23rd day after oral administration of 20 mg/kg in antiarthritis assay; assay type: functional
# Rattus norvegicus [5] = experiment: Percent reduction of edema in rat on 23rd day after oral administration of 20 mg/kg in antiarthritis assay; i = Inactive; assay type: functional, organism-based; design: dose 20 mg/kg; conditions: at 20 mg/kg
# Mus musculus [6] = experiment: Analgesic activity evaluated by measuring % analgesic effect, after oral administration of 120 mg/kg in acetic acid writhing test; assay type: functional
# Mus musculus [7] = experiment: Analgesic activity evaluated by measuring % analgesic effect, after oral administration of 80 mg/kg in acetic acid writhing test; assay type: functional
# Mus musculus [8] = experiment: Analgesic activity evaluated by measuring % analgesic effect, after oral administration of 60 mg/kg in acetic acid writhing test; assay type: functional
# Mus musculus [9] = species: Mus musculus; experiment: Analgesic activity in acetic acid writhing test, activity is expressed as ED50 values; assay type: functional
# Rattus norvegicus [10] = experiment: Antiinflammatory activity evaluated by measuring % reduction of edema, 3h after oral administration of 25 mg/kg in carrageenan model; assay type: functional
# [11] = Therapeutic index was expressed as LD50/ED50 carragreenin model; conditions: mouse; read-out: TI
# Mus musculus [12] = experiment: […] toxicity was evaluated (number of mice died after 72nd hour when 150 mg/kg is administered intraperitoneally; assay type: organism-based; design: dose 150 mg/kg, route intraperitoneal; conditions: in vivo, ip
# Mus musculus [13] = experiment: Acute toxicity was evaluated as number of mice (tested=7) died after 72nd hour when 100 mg/kg is administered intraperitoneally; assay type: organism-based; design: dose 100 mg/kg, route intraperitoneal; conditions: in vivo, ip
# Mus musculus [14] = experiment: Acute toxicity was evaluated as number of mice (tested=7) died after 72nd hour when 120 mg/kg is administered intraperitoneally; assay type: organism-based; design: dose 120 mg/kg, route intraperitoneal; conditions: in vivo, ip
# Rattus norvegicus [15] = species: Rattus norvegicus; experiment: Ulcer index of the compound; assay type: functional
# Rattus norvegicus [16] = experiment: Antiinflammatory activity evaluated by measuring % reduction of edema, 3h after oral administration of 100 mg/kg in carrageenan model; assay type: functional
# Rattus norvegicus [17] = experiment: Percent reduction of edema in rat on 23rd day after oral administration of 30 mg/kg in antiarthritis assay; assay type: functional
# Mus musculus [18] = experiment: Acute toxicity was evaluated as number of mice (tested=7) died after 72nd hour when 130 mg/kg is administered intraperitoneally; assay type: organism-based; design: dose 130 mg/kg, route intraperitoneal; conditions: in vivo, ip
# Mus musculus [19] = experiment: Acute toxicity was evaluated as number of mice (tested=7) died after 72nd hour when 115 mg/kg is administered intraperitoneally; assay type: organism-based; design: dose 115 mg/kg, route intraperitoneal; conditions: in vivo, ip
# Rattus norvegicus [20] = experiment: Antiinflammatory activity evaluated by measuring % reduction of edema, 3h after oral administration of 10 mg/kg in carrageenan model; assay type: functional
# Rattus norvegicus [21] = species: Rattus norvegicus; experiment: Antiinflammatory activity in carrageenan model, activity is expressed as ED50 values; assay type: functional
# [22] = Toxic activity is expressed as LD50 values; assay type: toxicity, organism-based; conditions: mouse, in vivo
# Rattus norvegicus [23] = experiment: Percent reduction of edema in rat on 23rd day after oral administration of 100 mg/kg in antiarthritis assay; assay type: functional
# Mus musculus [24] = experiment: Percent reduction of edema in mice 3h after oral administration of 100 mg/kg in carrageenan model; assay type: functional
# Mus musculus [25] = experiment: Analgesic activity evaluated by measuring % analgesic effect, after oral administration of 30 mg/kg in acetic acid writhing test; assay type: functional
# Mus musculus [26] = experiment: Acute toxicity was evaluated as number of mice (tested=7) died after 72nd hour when 200 mg/kg is administered intraperitoneally; assay type: organism-based; design: dose 200 mg/kg, route intraperitoneal; conditions: in vivo, ip
# Mus musculus [27] = experiment: Percent reduction of edema in mice 3h after oral administration of 17 mg/kg in carrageenan model; assay type: functional
# Mus musculus [28] = experiment: Acute toxicity was evaluated as number of mice (tested=7) died after 72nd hour when 280 mg/kg is administered intraperitoneally; assay type: organism-based; design: dose 280 mg/kg, route intraperitoneal; conditions: in vivo, ip
# Mus musculus [29] = experiment: Analgesic activity evaluated by measuring % analgesic effect, after oral administration of 5 mg/kg in acetic acid writhing test; assay type: functional
# Mus musculus [30] = experiment: Analgesic activity evaluated by measuring % analgesic effect, after oral administration of 15 mg/kg in acetic acid writhing test; assay type: functional
# Mus musculus [31] = experiment: Acute toxicity was evaluated as number of mice (tested=7) died after 72nd hour when 270 mg/kg is administered intraperitoneally; assay type: organism-based; design: dose 270 mg/kg, route intraperitoneal; conditions: in vivo, ip
# Mus musculus [32] = experiment: Acute toxicity was evaluated as number of mice (tested=7) died after 72nd hour when 250 mg/kg is administered intraperitoneally; assay type: organism-based; design: dose 250 mg/kg, route intraperitoneal; conditions: in vivo, ip
# Mus musculus [33] = experiment: Acute toxicity was evaluated as number of mice (tested=7) died after 72nd hour when 260 mg/kg is administered intraperitoneally; assay type: organism-based; design: dose 260 mg/kg, route intraperitoneal; conditions: in vivo, ip
# Mus musculus [34] = experiment: Analgesic activity evaluated by measuring % analgesic effect, after oral administration of 0.3 mg/kg in acetic acid writhing test; assay type: functional
# Mus musculus [35] = experiment: Percent reduction of edema in mice 3h after oral administration of 50 mg/kg in carrageenan model; assay type: functional
# Rattus norvegicus [36] = experiment: Percent reduction of edema in rat on 23rd day after oral administration of 50 mg/kg in antiarthritis assay; i = Inactive; assay type: functional, organism-based; design: dose 50 mg/kg; conditions: at 50 mg/kg
# Mus musculus [37] = experiment: Percent reduction of edema in mice 3h after oral administration of 300 mg/kg in carrageenan model; assay type: functional
# Rattus norvegicus [38] = experiment: Percent reduction of edema in rat on 23rd day after oral administration of 300 mg/kg in antiarthritis assay; i = Inactive; assay type: functional, organism-based; design: dose 300 mg/kg; conditions: at 300 mg/kg
smiles,measurement,setting,value
CCCn1c(=O)ccn2nc(-c3ccccc3)cc12,Reduction,Rattus norvegicus [1],inactive
same,Reduction,Mus musculus [2],18.9%
O=c1ccn(Cc2ccccc2)c2cc(-c3ccccc3)nn12,Reduction,Mus musculus [3],5.8%
same,Reduction,Rattus norvegicus [4],18.2%
CCOC(Cn1ccc(=O)n2nc(-c3ccccc3)cc12)OCC,Reduction,Mus musculus [3],12.5%
same,Reduction,Rattus norvegicus [5],inactive
Cn1ccc(=O)n2nccc12,Reduction,Mus musculus [3],0%
same,Reduction,Rattus norvegicus [5],inactive
Cn1ccc(=O)n2nc(-c3ccccc3)cc12,Analgesic effect,Mus musculus [6],80.7%
same,Analgesic effect,Mus musculus [7],53.3%
same,Analgesic effect,Mus musculus [8],43%
same,ED50,Mus musculus [9],69.6 mg/kg
same,Reduction,Rattus norvegicus [10],55.1%
same,selectivity ratio,[11],5.13
same,Reduction,Mus musculus [2],54%
same,Acute toxicity,Mus musculus [12],6
same,Acute toxicity,Mus musculus [13],0
same,Acute toxicity,Mus musculus [14],3
same,UI,Rattus norvegicus [15],0.5
same,Reduction,Rattus norvegicus [16],67.5%
same,Reduction,Rattus norvegicus [17],29.8%
same,Acute toxicity,Mus musculus [18],4
same,Acute toxicity,Mus musculus [19],1
same,Reduction,Rattus norvegicus [20],34.2%
same,ED50,Rattus norvegicus [21],24.7 mg/kg
same,LD50,[22],127 mg/kg
CCn1c(=O)ccn2nc(-c3ccccc3)cc12,Reduction,Rattus norvegicus [23],25.7%
same,Reduction,Mus musculus [24],32.2%
CCn1ccc(=O)n2nc(-c3ccccc3)cc12,Analgesic effect,Mus musculus [25],84.3%
same,Acute toxicity,Mus musculus [26],0
same,Reduction,Mus musculus [27],54.1%
same,ED50,Mus musculus [9],9.86 mg/kg
same,Acute toxicity,Mus musculus [28],5
same,Analgesic effect,Mus musculus [29],24.5%
same,Reduction,Rattus norvegicus [10],69.8%
same,selectivity ratio,[11],37.1
same,Analgesic effect,Mus musculus [30],69.3%
same,UI,Rattus norvegicus [15],0.15
same,Reduction,Rattus norvegicus [16],90.1%
same,Acute toxicity,Mus musculus [31],3
same,Acute toxicity,Mus musculus [32],1
same,Reduction,Rattus norvegicus [17],42.7%
same,Acute toxicity,Mus musculus [33],2
same,Reduction,Rattus norvegicus [20],54.1%
same,ED50,Rattus norvegicus [21],7.3 mg/kg
same,LD50,[22],271 mg/kg
same,Analgesic effect,Mus musculus [34],20%
CCn1cc(Br)c(=O)n2nc(-c3ccccc3)c(Br)c12,Reduction,Rattus norvegicus [1],inactive
same,Reduction,Mus musculus [2],0%
Cc1cc(=O)n2nc(-c3ccccc3)cc2n1C,Reduction,Mus musculus [35],56.7%
same,Reduction,Rattus norvegicus [36],inactive
Oc1ccnc2cc(-c3ccccc3)nn12,Reduction,Mus musculus [37],27.3%
same,Reduction,Rattus norvegicus [38],inactive
Cc1cn(C)c2cc(-c3ccccc3)nn2c1=O,Reduction,Mus musculus [37],68.7%
same,Reduction,Rattus norvegicus [38],inactive
CCn1ccc(=O)n2nc(-c3ccc(C)cc3)cc12,Reduction,Rattus norvegicus [1],inactive
same,Reduction,Mus musculus [2],35.9%
